Measurements: patent US8946477B2, “Solid forms of an N-(phenylmethyl) propanamide derivative and processes of preparation” (Medichem, S.A., priority 2009, dated 2015)

Test: Stability studies: storage under standard conditions, then XRD analysis
Type: physicochemical
Settings: for XRD after storage (polymorphic form): stored at room temperature, air atmosphere

For `COC[C@@H](NC(C)=O)C(=O)NCc1ccccc1` [Example 42, (2R)-2-(acetylamino)-3-methoxy-N-(phenylmethyl)propanamide], the “XRD after storage (polymorphic form)” value (normal pressure, storing time 290 days) was “Form III”.
In the case of `COC[C@@H](NC(C)=O)C(=O)NCc1ccccc1` [amorphous lacosamide, (2R)-2-(acetylamino)-3-methoxy-N-(phenylmethyl)propanamide], the stability on storage (ambient conditions and air atmosphere for at least 250 days, more typically at least 300 days) was “substantially stable” and the “XRD after storage (FIG. 13 vs FIG. 12)” value (room temperature, normal pressure, air atmosphere for 304 days (Example 63)) was “retention of amorphous Form”.
In the case of `COC[C@@H](NC(C)=O)C(=O)NCc1ccccc1` [Example 41, (2R)-2-(acetylamino)-3-methoxy-N-(phenylmethyl)propanamide], the “XRD after storage (polymorphic form)” value (normal pressure, storing time 295 days) was “Form III”.
With `COC[C@@H](NC(C)=O)C(=O)NCc1ccccc1` [lacosamide Form III, (2R)-2-(acetylamino)-3-methoxy-N-(phenylmethyl)propanamide] the “polymorphic stability on storage” value (ambient conditions and air atmosphere for at least 250 days, more typically at least 290 days) was “substantially no polymorphic interconversion is observed”.
